The target in assay [1] is Serine/threonine-protein kinase 24 (Homo sapiens) (UniProt Q9Y6E0). As to the kind of experiment: Selectivity interaction (Kinase panel (KiNativ target engagement assay in Jurkat cells)) EUB0001635a STK24. The class given is cell-based. Conditions: Selectivity number of off-targets 0.0, Selectivity number of targets 233.0, Source Knowledge https://www.sciencedirect.com/science/article/pii/S2451945619300674?via%3Dihub, at 1 µM.

Assay [2] concerns the target Histone-lysine N-methyltransferase 2A (Homo sapiens) (UniProt Q03164). As to the kind of experiment: Selectivity interaction (Methyltransferase screen (radiometric assays, panel of 8 PRMTs, 21 protein lysine methyltransferases, 3 DNA methyltransferases, and one RNA methyltransferase)) EUB0000271b MLL.
The target of assay [3] is Tyrosine-protein kinase Lck (Homo sapiens, UniProt P06239). As to the kind of experiment: Selectivity interaction (KinomeScan (DiscoverX)) EUB0000666a LCK. The settings on record: at 10 µM.
Assay [4] has as its target cAMP-dependent protein kinase catalytic subunit beta (Homo sapiens) (UniProt P22694). As to the kind of experiment: Selectivity interaction (KinomeScan (DiscoverX)) EUB0000655a PRKACB. The settings on record: at 10 µM.
Assay [5] has as its target Phosphatidylinositol 4-kinase beta (Homo sapiens, UniProt Q9UBF8). As to the kind of experiment: Selectivity interaction (KinomeScan (DiscoverX)) EUB0001619a PI4KB. Conditions: at 1 µM.
For assay [6], the target named is T1, Inhibitor of nuclear factor kappa-B kinase subunit beta (Homo sapiens) (UniProt O14920).
T1 sequence (whole entry): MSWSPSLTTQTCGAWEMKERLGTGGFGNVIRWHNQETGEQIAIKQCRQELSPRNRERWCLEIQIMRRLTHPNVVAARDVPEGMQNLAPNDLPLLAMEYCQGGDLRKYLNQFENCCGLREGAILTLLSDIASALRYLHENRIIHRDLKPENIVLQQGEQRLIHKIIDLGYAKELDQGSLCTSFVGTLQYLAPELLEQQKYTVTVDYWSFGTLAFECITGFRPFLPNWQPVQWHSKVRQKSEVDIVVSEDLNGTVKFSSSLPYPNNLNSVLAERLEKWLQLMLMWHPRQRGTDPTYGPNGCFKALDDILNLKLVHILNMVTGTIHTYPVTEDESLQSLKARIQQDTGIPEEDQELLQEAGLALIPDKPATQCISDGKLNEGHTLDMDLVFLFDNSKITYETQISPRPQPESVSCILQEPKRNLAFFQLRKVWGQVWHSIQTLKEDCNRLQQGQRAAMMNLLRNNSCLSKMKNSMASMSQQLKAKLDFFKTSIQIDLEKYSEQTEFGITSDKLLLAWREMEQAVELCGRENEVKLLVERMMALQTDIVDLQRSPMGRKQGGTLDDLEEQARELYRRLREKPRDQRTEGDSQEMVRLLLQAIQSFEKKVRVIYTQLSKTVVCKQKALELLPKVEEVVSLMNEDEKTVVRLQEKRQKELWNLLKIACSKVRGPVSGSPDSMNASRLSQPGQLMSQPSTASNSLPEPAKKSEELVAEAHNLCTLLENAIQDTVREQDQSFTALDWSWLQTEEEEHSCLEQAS
As to the kind of experiment: Selectivity interaction (ActivX KiNativ screen (kinase selectivity in THP-1 cell lysates)) EUB0000639a IKBKB. The class given is subcellular. The settings on record: lysate, at 0.04 µM.

Assay [7] addresses Serine/threonine-protein kinase B-raf (Homo sapiens) (UniProt P15056). As to the kind of experiment: Selectivity interaction (ActivX KiNativ screen (kinase selectivity in THP-1 cell lysates)) EUB0000639a BRAF. The class given is subcellular. The settings on record: lysate.
The target in assay [8] is Mitogen-activated protein kinase kinase kinase 11 (Homo sapiens) (UniProt Q16584). Conditions: at 10 µM.
The target of assay [9] is Glutamate receptor ionotropic, kainate 1 (Homo sapiens) (UniProt P39086). As to the kind of experiment: Selectivity interaction (Eurofins CEREP Diversity Profile (receptors and ion channels)) EUB0000279b GRIK1. Conditions: at 10 µM.
In another assay the target is Misshapen-like kinase 1 (Homo sapiens, UniProt Q8N4C8). As to the kind of experiment: Selectivity interaction (KinomeScan (DiscoverX)) EUB0000092b MINK1. The settings on record: at 10 µM.
Misshapen-like kinase 1, sequence (Q8N4C8 whole entry, looked up): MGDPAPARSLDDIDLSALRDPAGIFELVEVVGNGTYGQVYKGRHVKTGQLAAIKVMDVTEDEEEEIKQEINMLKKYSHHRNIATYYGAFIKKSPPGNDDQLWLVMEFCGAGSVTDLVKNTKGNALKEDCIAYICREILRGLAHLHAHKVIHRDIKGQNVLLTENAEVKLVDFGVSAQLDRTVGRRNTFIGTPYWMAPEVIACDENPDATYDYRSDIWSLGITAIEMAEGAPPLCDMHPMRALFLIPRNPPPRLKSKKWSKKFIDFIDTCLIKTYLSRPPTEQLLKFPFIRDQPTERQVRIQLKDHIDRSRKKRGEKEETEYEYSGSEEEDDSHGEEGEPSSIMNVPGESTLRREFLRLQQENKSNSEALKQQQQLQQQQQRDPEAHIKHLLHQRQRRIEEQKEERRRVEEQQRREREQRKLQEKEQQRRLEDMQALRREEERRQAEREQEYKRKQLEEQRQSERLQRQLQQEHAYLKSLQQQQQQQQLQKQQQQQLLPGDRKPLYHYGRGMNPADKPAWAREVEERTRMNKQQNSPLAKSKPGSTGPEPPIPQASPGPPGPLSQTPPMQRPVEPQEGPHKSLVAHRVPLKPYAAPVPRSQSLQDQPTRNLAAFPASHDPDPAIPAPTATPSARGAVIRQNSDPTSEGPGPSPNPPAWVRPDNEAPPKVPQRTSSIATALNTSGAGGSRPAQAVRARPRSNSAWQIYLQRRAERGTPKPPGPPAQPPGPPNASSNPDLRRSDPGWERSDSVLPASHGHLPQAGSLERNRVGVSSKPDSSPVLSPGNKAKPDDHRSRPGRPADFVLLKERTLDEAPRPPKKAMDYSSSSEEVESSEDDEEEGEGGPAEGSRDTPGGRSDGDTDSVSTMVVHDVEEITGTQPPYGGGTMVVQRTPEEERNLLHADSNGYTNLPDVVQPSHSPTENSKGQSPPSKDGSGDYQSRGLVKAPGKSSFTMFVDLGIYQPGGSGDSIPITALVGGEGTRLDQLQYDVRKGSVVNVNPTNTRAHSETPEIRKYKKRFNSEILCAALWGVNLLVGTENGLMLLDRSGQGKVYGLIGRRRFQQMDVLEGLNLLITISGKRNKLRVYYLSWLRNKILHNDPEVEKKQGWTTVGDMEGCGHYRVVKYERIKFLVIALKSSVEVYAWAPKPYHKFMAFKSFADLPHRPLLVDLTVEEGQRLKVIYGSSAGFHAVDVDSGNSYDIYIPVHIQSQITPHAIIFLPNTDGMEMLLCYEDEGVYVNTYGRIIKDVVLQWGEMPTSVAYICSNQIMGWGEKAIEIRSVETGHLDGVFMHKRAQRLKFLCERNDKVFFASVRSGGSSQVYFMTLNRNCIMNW
The target in assay [10] is Fibroblast growth factor receptor 4 (Homo sapiens, UniProt P22455). As to the kind of experiment: Selectivity interaction (KinomeScan (DiscoverX)) EUB0000618a FGFR4. Conditions: at 10 µM.
The target in assay [11] is T2, Ephrin type-B receptor 6 (Homo sapiens) (UniProt O15197).
T2 sequence (whole entry): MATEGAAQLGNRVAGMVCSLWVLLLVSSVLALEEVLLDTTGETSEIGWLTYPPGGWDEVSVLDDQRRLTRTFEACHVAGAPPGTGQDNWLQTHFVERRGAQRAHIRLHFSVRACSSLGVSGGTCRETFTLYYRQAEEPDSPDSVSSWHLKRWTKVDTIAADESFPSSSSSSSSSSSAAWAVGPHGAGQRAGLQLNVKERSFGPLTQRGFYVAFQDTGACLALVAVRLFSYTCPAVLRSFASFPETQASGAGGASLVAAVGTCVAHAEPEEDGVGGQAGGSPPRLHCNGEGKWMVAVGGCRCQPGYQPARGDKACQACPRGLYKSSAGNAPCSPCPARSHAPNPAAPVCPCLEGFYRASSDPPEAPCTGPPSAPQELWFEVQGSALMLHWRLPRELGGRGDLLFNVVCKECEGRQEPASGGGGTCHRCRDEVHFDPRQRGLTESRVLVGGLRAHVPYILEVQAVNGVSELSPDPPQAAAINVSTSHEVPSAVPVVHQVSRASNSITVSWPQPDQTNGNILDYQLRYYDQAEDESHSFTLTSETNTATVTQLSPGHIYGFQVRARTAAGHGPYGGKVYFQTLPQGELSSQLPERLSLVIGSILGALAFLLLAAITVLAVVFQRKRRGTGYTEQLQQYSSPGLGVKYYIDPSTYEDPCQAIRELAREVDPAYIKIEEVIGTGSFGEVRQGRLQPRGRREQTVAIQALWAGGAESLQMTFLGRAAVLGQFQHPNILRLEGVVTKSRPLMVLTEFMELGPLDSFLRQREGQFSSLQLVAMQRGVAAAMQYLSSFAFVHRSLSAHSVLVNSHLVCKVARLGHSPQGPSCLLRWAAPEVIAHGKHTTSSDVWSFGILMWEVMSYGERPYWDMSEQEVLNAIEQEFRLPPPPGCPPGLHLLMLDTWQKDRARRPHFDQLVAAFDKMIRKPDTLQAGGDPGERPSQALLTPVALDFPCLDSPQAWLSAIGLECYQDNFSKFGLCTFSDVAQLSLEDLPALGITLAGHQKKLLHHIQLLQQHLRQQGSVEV
As to the kind of experiment: Selectivity interaction (KinomeScan (DiscoverX)) EUB0000618a EPHB6. The settings on record: at 10 µM.

In assay [12] the target is Histone-lysine N-methyltransferase SETD2 (Homo sapiens) (UniProt Q9BYW2). As to the kind of experiment: Selectivity interaction (Methyltransferase screen (radiometric assays, panel of 8 PRMTs, 21 protein lysine methyltransferases, 3 DNA methyltransferases, and one RNA methyltransferase)) EUB0000272b SETD2.
Histone-lysine N-methyltransferase SETD2 (Homo sapiens), sequence (Q9BYW2 whole entry): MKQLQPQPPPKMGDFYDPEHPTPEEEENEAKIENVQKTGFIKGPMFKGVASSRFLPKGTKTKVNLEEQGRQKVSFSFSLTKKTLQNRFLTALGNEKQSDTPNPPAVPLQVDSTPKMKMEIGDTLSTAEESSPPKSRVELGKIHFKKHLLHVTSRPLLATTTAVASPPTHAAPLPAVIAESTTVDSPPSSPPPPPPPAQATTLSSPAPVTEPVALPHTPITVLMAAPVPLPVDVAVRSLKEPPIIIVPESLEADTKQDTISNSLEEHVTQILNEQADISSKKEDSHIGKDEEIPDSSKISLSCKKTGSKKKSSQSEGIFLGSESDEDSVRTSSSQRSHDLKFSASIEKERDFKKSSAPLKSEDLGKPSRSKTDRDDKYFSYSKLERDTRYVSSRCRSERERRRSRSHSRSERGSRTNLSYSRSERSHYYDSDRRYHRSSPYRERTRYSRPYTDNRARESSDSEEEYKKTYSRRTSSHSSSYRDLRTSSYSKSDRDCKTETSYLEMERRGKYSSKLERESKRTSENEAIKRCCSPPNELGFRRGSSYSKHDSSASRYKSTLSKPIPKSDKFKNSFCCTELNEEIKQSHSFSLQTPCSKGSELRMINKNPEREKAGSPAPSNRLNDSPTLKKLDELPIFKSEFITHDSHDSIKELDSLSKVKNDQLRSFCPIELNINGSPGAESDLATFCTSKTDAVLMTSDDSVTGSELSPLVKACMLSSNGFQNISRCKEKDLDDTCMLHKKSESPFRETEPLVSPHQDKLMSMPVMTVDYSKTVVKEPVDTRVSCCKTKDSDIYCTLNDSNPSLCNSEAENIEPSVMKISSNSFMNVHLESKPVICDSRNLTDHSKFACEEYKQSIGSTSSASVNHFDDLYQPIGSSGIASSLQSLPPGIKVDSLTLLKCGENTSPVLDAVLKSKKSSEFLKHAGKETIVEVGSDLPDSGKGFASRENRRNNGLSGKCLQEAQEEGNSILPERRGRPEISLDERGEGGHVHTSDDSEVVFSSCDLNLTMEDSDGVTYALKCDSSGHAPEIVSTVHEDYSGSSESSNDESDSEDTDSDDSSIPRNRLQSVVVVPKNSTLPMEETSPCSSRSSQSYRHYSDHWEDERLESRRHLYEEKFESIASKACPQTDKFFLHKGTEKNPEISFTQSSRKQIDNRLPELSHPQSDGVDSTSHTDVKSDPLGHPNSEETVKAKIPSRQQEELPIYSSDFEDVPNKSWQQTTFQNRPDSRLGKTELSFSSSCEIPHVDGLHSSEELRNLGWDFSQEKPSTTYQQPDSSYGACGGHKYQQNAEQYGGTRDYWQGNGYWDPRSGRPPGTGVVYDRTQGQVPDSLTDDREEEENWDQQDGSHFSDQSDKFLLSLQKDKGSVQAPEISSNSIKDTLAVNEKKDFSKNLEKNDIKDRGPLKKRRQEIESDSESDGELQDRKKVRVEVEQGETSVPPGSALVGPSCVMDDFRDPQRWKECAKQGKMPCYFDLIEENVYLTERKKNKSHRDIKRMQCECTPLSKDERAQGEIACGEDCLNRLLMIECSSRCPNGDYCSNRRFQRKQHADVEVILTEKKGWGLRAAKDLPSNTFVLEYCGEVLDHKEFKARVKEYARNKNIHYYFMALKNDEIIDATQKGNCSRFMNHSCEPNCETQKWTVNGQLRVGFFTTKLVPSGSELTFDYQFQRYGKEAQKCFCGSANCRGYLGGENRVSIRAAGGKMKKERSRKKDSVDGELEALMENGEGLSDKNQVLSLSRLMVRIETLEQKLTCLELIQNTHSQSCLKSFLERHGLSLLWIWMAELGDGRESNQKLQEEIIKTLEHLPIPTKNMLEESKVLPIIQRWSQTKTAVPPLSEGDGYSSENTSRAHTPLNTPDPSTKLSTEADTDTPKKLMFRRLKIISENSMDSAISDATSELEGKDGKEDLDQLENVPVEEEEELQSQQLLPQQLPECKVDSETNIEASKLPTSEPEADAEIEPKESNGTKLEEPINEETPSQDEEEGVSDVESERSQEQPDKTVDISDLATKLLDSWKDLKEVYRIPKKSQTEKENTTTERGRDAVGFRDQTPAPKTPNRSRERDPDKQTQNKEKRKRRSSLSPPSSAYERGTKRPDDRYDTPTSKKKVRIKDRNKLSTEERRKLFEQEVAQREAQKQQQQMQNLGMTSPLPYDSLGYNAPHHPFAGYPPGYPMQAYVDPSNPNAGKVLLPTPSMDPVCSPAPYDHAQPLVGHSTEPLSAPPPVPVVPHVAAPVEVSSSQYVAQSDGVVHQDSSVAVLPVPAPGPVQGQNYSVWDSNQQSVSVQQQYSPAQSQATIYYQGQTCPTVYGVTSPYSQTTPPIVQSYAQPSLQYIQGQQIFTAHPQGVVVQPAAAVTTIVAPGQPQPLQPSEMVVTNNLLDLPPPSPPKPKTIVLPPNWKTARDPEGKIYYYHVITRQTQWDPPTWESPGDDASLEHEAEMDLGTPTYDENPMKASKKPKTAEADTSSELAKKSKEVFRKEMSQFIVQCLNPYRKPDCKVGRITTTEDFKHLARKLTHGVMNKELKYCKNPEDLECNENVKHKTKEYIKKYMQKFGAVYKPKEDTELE

The results in this text go back to ChEMBL document CHEMBL5465560, “Selectivity Literature for EUbOPEN Chemogenomic Library” (2024).

Each structure is given as a SMILES string.

Serine/threonine-protein kinase B-raf (Homo sapiens), sequence (P15056 whole entry): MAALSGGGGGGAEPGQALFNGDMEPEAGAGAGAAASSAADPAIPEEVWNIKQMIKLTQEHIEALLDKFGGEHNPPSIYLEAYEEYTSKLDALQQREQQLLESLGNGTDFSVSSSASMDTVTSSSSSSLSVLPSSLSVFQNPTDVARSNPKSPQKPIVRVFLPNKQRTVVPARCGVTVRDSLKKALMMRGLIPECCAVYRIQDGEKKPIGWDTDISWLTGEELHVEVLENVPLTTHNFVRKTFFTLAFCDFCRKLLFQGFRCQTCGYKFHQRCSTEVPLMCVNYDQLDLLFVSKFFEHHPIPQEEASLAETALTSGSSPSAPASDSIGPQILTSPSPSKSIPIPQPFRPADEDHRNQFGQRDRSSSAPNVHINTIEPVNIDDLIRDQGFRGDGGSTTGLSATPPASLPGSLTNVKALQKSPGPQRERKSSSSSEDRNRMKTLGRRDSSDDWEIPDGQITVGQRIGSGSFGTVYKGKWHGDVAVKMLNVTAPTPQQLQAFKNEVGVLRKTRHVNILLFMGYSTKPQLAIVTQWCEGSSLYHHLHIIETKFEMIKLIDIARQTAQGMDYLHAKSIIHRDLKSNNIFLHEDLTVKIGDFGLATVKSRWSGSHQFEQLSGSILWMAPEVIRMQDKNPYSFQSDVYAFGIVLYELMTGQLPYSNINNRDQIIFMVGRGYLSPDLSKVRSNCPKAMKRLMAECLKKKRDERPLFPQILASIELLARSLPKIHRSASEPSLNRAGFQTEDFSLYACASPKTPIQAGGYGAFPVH
Serine/threonine-protein kinase 24 (Homo sapiens), sequence (Q9Y6E0 whole entry, looked up): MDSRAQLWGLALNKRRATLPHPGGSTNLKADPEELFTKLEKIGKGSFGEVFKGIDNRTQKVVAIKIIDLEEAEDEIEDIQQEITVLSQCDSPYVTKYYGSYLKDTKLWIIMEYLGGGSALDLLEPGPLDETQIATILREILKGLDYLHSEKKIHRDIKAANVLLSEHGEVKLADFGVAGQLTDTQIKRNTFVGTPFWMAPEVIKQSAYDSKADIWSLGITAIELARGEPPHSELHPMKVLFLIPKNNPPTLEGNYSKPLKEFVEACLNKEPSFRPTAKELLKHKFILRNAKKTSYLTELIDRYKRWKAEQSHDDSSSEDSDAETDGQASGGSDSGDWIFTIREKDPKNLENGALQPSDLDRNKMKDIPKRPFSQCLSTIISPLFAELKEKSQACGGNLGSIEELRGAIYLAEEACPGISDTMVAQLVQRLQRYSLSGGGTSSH

`C=CC(=O)Nc1ccc(C(=O)Nc2[nH]nc3c2CN(C(=O)N[C@H](CN(C)C)c2ccccc2)C3(C)C)cc1` showed a % of engagement in [1] of 24%.

Turning to `Cc1cc(C)cc([C@@H]2c3cc(C)ccc3NC(=O)CN2C(=O)c2ccc(Br)s2)c1`, the % of activity in [2] (at 1 µM) worked out at 99.7%; in assay [2] (at 10 µM), 103%.

In turn, `O=C(NOC[C@H](O)CO)c1ccc(F)c(F)c1Nc1ccc(I)cc1F` came in with a % of control in assay [3] of 88%.

As to `CN(C)CCOc1ccc(-c2nc(-c3ccncc3)c(-c3ccc4c(c3)CC/C4=N\O)[nH]2)cc1`, the % of control in assay [4] came out at 74%.

Molecule `N#Cc1cccc(-c2c[nH]c3ncnc(N4CCOCC4)c23)c1` showed a % of control in [5] of 71%.

Regarding `CC[C@@H]1[C@H](F)C(=O)N[C@@H]1COc1nccc2cc(C(N)=O)c(OC)cc12` [ZIMLOVISERTIB], the % of inhibition in assay [6] is -3.9%; in [7] (at 0.01 µM), 7.3%; in assay [7] (at 0.04 µM), 15.4%; in assay [7] (at 0.2 µM), -0.2%; in [7] (at 1 µM), -0.4%; in assay [7] (at 5 µM) it was -15.5%.

Consider `CCN(CC)CCCCNc1ncc2cc(-c3cc(OC)cc(OC)c3)c(NC(=O)NC(C)(C)C)nc2n1`, for which the % of control in assay [8] is 100%.

In the case of `CC(=O)c1cc(-c2ccccc2OCC2CC2)c2ncccn12`, the % of control in assay [9] stood at 117%.

`CCC(=O)N1CCN(c2ccc(-n3c(=O)ccc4cnc5ccc(-c6cnc7ccccc7c6)cc5c43)cc2C(F)(F)F)CC1` registered a % of control on Misshapen-like kinase 1 of 19%.

For `O[C@H]1CC[C@H](Nc2ncc3nc(Nc4c(F)cc(F)cc4F)n([C@H]4CCOC4)c3n2)CC1`, the % of control in [10] came to 74%; in assay [11], 7.8%.

`Cc1cc(C)cc([C@H]2c3cc(C)ccc3NC(=O)CN2C(=O)c2ccc(Br)s2)c1`: the values for the % of activity in [12] (at 1 µM) and in [12] (at 10 µM) were 98% and 98.3%, respectively.
